Experiments:
[1] = system: mouse model of ovalbumin (OVA)-induced asthma; experiment: Mouse model of ovalbumin (OVA)-induced asthma: MCh-induced AHR (Penh) and eosinophil infiltrate in BALF; format: in vivo; conditions: single IV dose of 10 mg/kg at 24 h prior to assessment
Experimental: A mouse model of ovalbumin (OVA)-induced asthma was used to screen GSNOR inhibitors for efficacy against methacholine (MCh)-induced bronchoconstriction/airway hyper-responsiveness. This is a widely used and well characterized model that presents with an acute, allergic asthma phenotype with similarities to human asthma. Efficacy of GSNOR inhibitors was assessed using a protocol in which GSNOR inhibitors were administered after OVA sensitization and airway challenge, and prior to challenge with MCh. Bronchoconstriction in response to challenge with increasing doses of MCh was assessed using whole body plethysmography (Penh; Buxco). The amount of eosinophil infiltrate into the bronchoaveolar lavage fluid (BALF) was also determined as a measure of lung inflammation. The effects of GSNOR inhibitors were compared to vehicles and to Combivent (inhaled; IH) as the positive control.
OVA (500 μg/ml) in PBS was mixed with equal volumes of 10% (w/v) aluminum potassium sulfate in distilled water and incubated for 60 min. at room temperature after adjustment to pH 6.5 using 10 N NaOH. After centrifugation at 750×g for 5 min, the OVA/alum pellet was resuspended to the original volume in distilled water. Mice received an intraperitoneal (IP) injection of 100 μg OVA (0.2 mL of 500 μg/mL in normal saline) complexed with alum on day 0. Mice were anesthetized by IP injection of a 0.2-mL mixture of ketamine and xylazine (0.44 and 6.3 mg/mL, respectively) in normal saline and were placed on a board in the supine position. Two hundred fifty micrograms (100 μl of a 2.5 mg/ml) of OVA (on day 8) and 125 μg (50 μl of 2.5 mg/ml) OVA (on days 15, 18, and 21) were placed on the back of the tongue of each animal.
In vivo airway responsiveness to methacholine was measured 24 h after the last OVA challenge in conscious, freely moving, spontaneously breathing mice with whole body plethysmography using a Buxco chamber (Wilmington, N.C.). […] The degree of bronchoconstriction was expressed as enhanced pause (Penh), a calculated dimensionless value, which correlates with the measurement of airway resistance, impedance, and intrapleural pressure in the same mouse. Penh readings were taken and averaged for 4 min. after each nebulization challenge. Penh is calculated as follows: Penh=[(Te/Tr−1)×(PEF/PIF)], where Te is expiration time, Tr is relaxation time, PEF is peak expiratory flow, and PIF is peak inspiratory flow×0.67 coefficient. […]
After measurement of airway hyper-reactivity, the mice were exsanguinated by cardiac puncture, and then BALF was collected from either both lungs or from the right lung after tying off the left lung at the mainstem bronchus. Total BALF cells were counted from a 0.05 mL aliquot, and the remaining fluid was centrifuged at 200×g for 10 min at 4° C. […]

[2] = Mouse pharmacokinetic (PK) study; format: in vivo, male BALB/c mice; conditions: male, BALB/c, plasma, po, 10 mg/kg, IV 2 mg/kg, read-out: oral bioavailability (% F)
Excerpt: The mouse was used to determine the pharmacokinetics of compounds of the invention. This species is widely used to assess the bioavailability of compounds by administering both oral (PO) and intravenous (IV) test articles. Efficacy of the compounds of the invention was compared by assessing plasma exposure in male BALB/c mice either via IV or PO administration at the times of peak activity.
Compounds of the invention were reconstituted in a phosphate buffered saline (PBS)/10% Solutol (HS 15) clear solution resulting in a concentration of 0.2 mg/mL and administered to mice (2 mg/kg) as a single IV dose. Animals were dosed via the lateral tail vein. Blood samples were collected at designated time points (0.083, 0.25, 0.5, 1, 2, 4, 8, 16, 24 hours) by cardiac puncture under isoflurane anesthesia (up to 1 mL blood per animal). The blood was collected into tubes containing Li-Heparin. The blood samples were kept on ice until centrifugation within approximately 30 minutes of collection. The plasma was transferred into labeled polypropylene tubes and frozen at −70° C. until analyzed by LC/MS/MS.
The compounds of the invention were reconstituted in 40% Propylene Glycol/40% Propylene Carbonate/20% of a 5% Sucrose clear solution resulting in a concentration of 2 mg/mL and administered to mice (10 mg/kg) as a single oral dose via gavage. Blood samples were collected at 0.25, 0.5, 1, 2, 4, 8, 12, 16, 20 and 24 hours post dose by cardiac puncture under isoflurane anesthesia. The blood was collected in tubes containing Li-Heparin. […] The plasma was transferred into labeled polypropylene tubes and frozen at −70° C. until analyzed by LC/MS/MS.
Plasma samples at each timepoint were analyzed using a LC-MS/MS with a lower limit of quantification (LLOQ) of 1 ng/mL. Plasma was analyzed to determine the amount of the compound of the invention in each sample and regression curves generated for each compounds of the invention in the relevant matrixes. […]
In addition to the above PK parameters, bioavailability (% F) was calculated.

Oc1ccc2nc(-c3ccc(-c4nnn[nH]4)cc3)ccc2c1 [Example 4, 2-(4-(1H-tetrazol-5-yl)phenyl)quinolin-6-ol]
decrease of eosinophil infiltration into BALF [1]: 20 % of vehicle control | decrease of MCh-induced AHR ([1]; p<0.05): 19 % of vehicle control | bioavailability [2]: > 9%

From patent publication US9221810B2, “Substituted bicyclic aromatic compounds as S-nitrosoglutathione reductase inhibitors” (Nivalis Therapeutics, Inc., priority 2010, dated 2015)
